This is an account of results in US4469786A (priority 1981, dated 1984).

Data set [1] has as its system DNA. To be noted: cited from earlier work.
Data set [2] concerns single-stranded .phi.105 DNA.
Data set [3] has as its system Salmonella tester strains. To be noted: literature (McCann, Bartsch, Glatt); cited from earlier work.
In data set [4] the test system is replicative-form .phi.105DII:6C DNA. As to the kind of experiment: gene linkage disruption in the marker rescue assay with .phi.105DII:6C DNA. The following applies: PO, same conditions as Example 5 (25 to 100 mM).
Data set [5] concerns DNA. To be noted: transformation-based assay of Phillips et al.; cited from earlier work.

For the molecule `O=CCCl` [CAA, chloroacetaldehyde], in the data set with DNA [1], the “lesion in DNA / reactivity with DNA” value was “reacts with adenines and cytosines to form imidazonucleoside derivatives”.
Consider `NO` [HA, hydroxylamine], for which the marker rescue activity result in data set [2] is “loss of marker rescue activity”. For the same molecule, the “frequency of clear PFU/total PFU (capacity of treated DNA to generate clear-plaque mutants)” value in data set [2] (1M HA, single-stranded DNA, 45° C., 0-60 minutes, GB68, FIG. 2) is listed as “A time dependent increase in the capacity of the treated DNA to generate clear-plaque mutants”. Moreover, the “lesion in DNA / reactivity with DNA” value in the data set on DNA [1] is reported as “induces predominantly guanine-cytosine to adenine-thymine transitions”.
With `ClC(Cl)=C(c1ccc(Cl)cc1)c1ccc(Cl)cc1` [DDE], the “mutagenicity in the Ames assay” value in data set [3] is on record as “not mutagenic in the Ames assay”.
In the case of `CC1CO1` (centres unmarked) [PO, propylene oxide], in data set [2], the “frequency of clear PFU at the highest concentration” value is reported as “a decrease in the frequency of clear PFU”, the marker rescue activity entry is recorded as “No consistent decrease in marker rescue activity” and the “significance (p) of increase in frequency of clear PFU” value was below 0.001. In data set [4], the “disruption of linkage between J^+ allele and DII:6C mutation” value is “no significant disruption of linkage”. Also, the “lesion in DNA / reactivity with DNA” value in the data set with DNA [1] was “reacts with guanine and adenine residues but has also been claimed to react with the phosphodiester backbone of DNA producing strand scissions”. Also, the strand scission result with DNA [5] is reported as “PO-induced strand scission which was observed”.
Consider `ClC(Cl)Cl` [CHCl3], for which the “mutagenicity in the Ames assay” value in data set [3] is “not mutagenic in the Ames assay”.
As for `ClC(Cl)(Cl)Cl` [CCl4], the “mutagenicity in the Ames assay” value in data set [3] is on record as “not mutagenic in the Ames assay”.
Consider `CC/C(=C(/CC)c1ccc(O)cc1)c1ccc(O)cc1` [diethylstilbestrol], for which, in data set [3], the “mutagenicity in the Ames assay” value is on record as “not mutagenic in the Ames assay”.
Regarding `ClC1=C(Cl)[C@]2(Cl)[C@@H]3[C@@H]4C[C@@H]([C@H]5O[C@@H]45)[C@@H]3[C@@]1(Cl)C2(Cl)Cl` [dieldrin], the “mutagenicity in the Ames assay” value in data set [3] is recorded as “not mutagenic in the Ames assay”.
In the case of `CC(=O)ON(C(C)=O)c1ccc2c(c1)Cc1ccccc1-2` [AAAF, N-acetyl-N-acetoxy-2-aminofluorine], in data set [2], the “frequency of clear PFU, earliest sample” value was “there appeared to be an increase in the frequency of clear PFU”; the “marker rescue activity, subsequent samples” value was “very rapid and extensive loss of marker rescue activity”. Further, the “numbers of clear-plaque mutants generated” value in data set [2] (35 mM AAAF, 37° C., 1-9 min., Hcr^+ recipient GB68, FIG. 6) was “increased with length of AAAF treatment”. In addition, the “frequency of clear-plaque mutants, subsequent samples” value in data set [2] (35 mM AAAF, 37° C., subsequent samples, Hcr^- recipient GB7075) is “concomitant decrease in the frequency of clear-plaque mutants”. The “lesion in DNA / reactivity with DNA” value in the data set on DNA [1] is given as “potent frameshift mutagen which forms two different guanine adducts”.
